# According to the supplement of paper PMC10307832:
# Experiments:
# Experiment in all cases: relative viability (nuclei count vs DMSO), 5 days (fraction); higher = more cells survive
# [1] = tested on: NCI-H1650
# In short: (§1)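 The day after seeding in 1536-well plates, lung cancer cell lines were treated by pin tool with a single drug, or with a fixed anchor-drug dose together with five library-drug doses (not always all listed) in √10 steps. After 5 days, a combined fix-and-stain solution (final 0.05% Triton X-100, 1% formaldehyde, 1 ug/ml Hoechst) was added. Nuclei counted on 4× images gave relative viability as treated counts over vehicle counts, reported as the median of duplicate plates.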
# [2] = tested on: NCI-H2023
# In short: as §1
# [3] = tested on: HCC-15
# In short: as §1
# [4] = tested on: NCI-H1915
# In short: as §1
# [5] = tested on: NCI-H2009
# In short: as §1
# [6] = tested on: BEN
# In short: as §1
# [7] = tested on: ChaGo-K-1
# In short: as §1
# [8] = tested on: HCC-827
# In short: as §1
# [9] = tested on: HCC-44
# In short: as §1
# [10] = tested on: LCLC-97TM1
# In short: as §1
# [11] = tested on: NCI-H596
# In short: as §1
# [12] = tested on: NCI-H1395
# In short: as §1
# [13] = tested on: NCI-H1944
# In short: as §1
# [14] = tested on: NCI-H522
# In short: as §1
# [15] = tested on: LU99A
# In short: as §1
# [16] = tested on: HOP-62
# In short: as §1
# [17] = tested on: COR-L 105
# In short: as §1
# [18] = tested on: LC-2-ad
# In short: as §1
# [19] = tested on: LOU-NH91
# In short: as §1
# [20] = tested on: CAL-12T
# In short: as §1
# [21] = tested on: HCC-366
# In short: as §1
# [22] = tested on: NCI-H661
# In short: as §1
# [23] = tested on: NCI-H650
# In short: as §1
# [24] = tested on: HARA
# In short: as §1
structure (smiles),measurement,setting,value
Nc1cccc2c1CN(C1CCC(=O)NC1=O)C2=O (configuration not stated) [Lenalidomide] + Nc1nc2[nH]cc(CCc3ccc(C(=O)N[C@@H](CCC(=O)O)C(=O)O)cc3)c2c(=O)[nH]1 [Pemetrexed] (partner 0.2 µM),relative viability,[1]; first compound 0.253 µM,0.357
same,relative viability,[1]; first compound 0.8 µM,0.357
same,relative viability,[1]; first compound 2.53 µM,0.366
same,relative viability,[1]; first compound 8 µM,0.53
same,relative viability,[2]; first compound 0.253 µM,0.259
same,relative viability,[2]; first compound 0.8 µM,0.235
same,relative viability,[2]; first compound 2.53 µM,0.246
same,relative viability,[2]; first compound 8 µM,0.256
same,relative viability,[3]; first compound 0.253 µM,0.219
same,relative viability,[3]; first compound 2.53 µM,0.231
same,relative viability,[3]; first compound 8 µM,0.228
same,relative viability,[4]; first compound 0.253 µM,0.492
same,relative viability,[4]; first compound 0.8 µM,0.515
same,relative viability,[4]; first compound 2.53 µM,0.518
same,relative viability,[4]; first compound 8 µM,0.476
same,relative viability,[5]; first compound 0.253 µM,0.988
same,relative viability,[5]; first compound 0.8 µM,1.05
same,relative viability,[5]; first compound 2.53 µM,1
same,relative viability,[5]; first compound 8 µM,1.08
same,relative viability,[6]; first compound 0.253 µM,0.787
same,relative viability,[6]; first compound 0.8 µM,0.608
same,relative viability,[6]; first compound 2.53 µM,0.737
same,relative viability,[6]; first compound 8 µM,0.673
same,relative viability,[7]; first compound 0.253 µM,0.256
same,relative viability,[7]; first compound 0.8 µM,0.255
same,relative viability,[7]; first compound 2.53 µM,0.274
same,relative viability,[7]; first compound 8 µM,0.26
same,relative viability,[8]; first compound 0.253 µM,0.276
same,relative viability,[8]; first compound 0.8 µM,0.269
same,relative viability,[8]; first compound 2.53 µM,0.252
same,relative viability,[8]; first compound 8 µM,0.304
same,relative viability,[9]; first compound 0.253 µM,0.616
same,relative viability,[9]; first compound 0.8 µM,0.638
same,relative viability,[9]; first compound 2.53 µM,0.631
same,relative viability,[9]; first compound 8 µM,0.762
same,relative viability,[10]; first compound 0.253 µM,0.175
same,relative viability,[10]; first compound 0.8 µM,0.151
same,relative viability,[10]; first compound 2.53 µM,0.18
same,relative viability,[10]; first compound 8 µM,0.2
same,relative viability,[11]; first compound 0.253 µM,0.519
same,relative viability,[11]; first compound 0.8 µM,0.4
same,relative viability,[11]; first compound 2.53 µM,0.538
same,relative viability,[11]; first compound 8 µM,0.48
same,relative viability,[12]; first compound 0.253 µM,0.875
same,relative viability,[12]; first compound 2.53 µM,0.948
same,relative viability,[12]; first compound 8 µM,0.874
same,relative viability,[13]; first compound 0.253 µM,0.642
same,relative viability,[13]; first compound 2.53 µM,0.691
same,relative viability,[13]; first compound 8 µM,0.553
same,relative viability,[14]; first compound 0.253 µM,1.05
same,relative viability,[14]; first compound 0.8 µM,0.912
same,relative viability,[14]; first compound 2.53 µM,1.11
same,relative viability,[14]; first compound 8 µM,0.663
same,relative viability,[15]; first compound 0.253 µM,0.188
same,relative viability,[15]; first compound 0.8 µM,0.183
same,relative viability,[15]; first compound 2.53 µM,0.169
same,relative viability,[15]; first compound 8 µM,0.169
same,relative viability,[16]; first compound 0.253 µM,0.356
same,relative viability,[16]; first compound 0.8 µM,0.376
same,relative viability,[16]; first compound 2.53 µM,0.287
same,relative viability,[16]; first compound 8 µM,0.381
same,relative viability,[17]; first compound 0.253 µM,1.21
same,relative viability,[17]; first compound 0.8 µM,1.16
same,relative viability,[17]; first compound 2.53 µM,1.22
same,relative viability,[17]; first compound 8 µM,1.2
same,relative viability,[18]; first compound 0.253 µM,0.269
same,relative viability,[18]; first compound 0.8 µM,0.258
same,relative viability,[18]; first compound 2.53 µM,0.262
same,relative viability,[18]; first compound 8 µM,0.269
same,relative viability,[19]; first compound 0.253 µM,0.398
same,relative viability,[19]; first compound 0.8 µM,0.361
same,relative viability,[19]; first compound 2.53 µM,0.408
same,relative viability,[19]; first compound 8 µM,0.406
same,relative viability,[20]; first compound 0.253 µM,1.18
same,relative viability,[20]; first compound 0.8 µM,1.32
same,relative viability,[20]; first compound 2.53 µM,1.67
same,relative viability,[20]; first compound 8 µM,1.57
same,relative viability,[21]; first compound 0.253 µM,0.161
same,relative viability,[21]; first compound 0.8 µM,0.123
same,relative viability,[21]; first compound 2.53 µM,0.206
same,relative viability,[21]; first compound 8 µM,0.264
same,relative viability,[22]; first compound 0.253 µM,0.908
same,relative viability,[22]; first compound 0.8 µM,0.935
same,relative viability,[22]; first compound 2.53 µM,0.926
same,relative viability,[22]; first compound 8 µM,0.932
same,relative viability,[23]; first compound 0.253 µM,0.902
same,relative viability,[23]; first compound 0.8 µM,0.914
same,relative viability,[23]; first compound 2.53 µM,1.07
same,relative viability,[23]; first compound 8 µM,0.841
same,relative viability,[24]; first compound 0.253 µM,0.258
same,relative viability,[24]; first compound 2.53 µM,0.249
same,relative viability,[24]; first compound 8 µM,0.259
